According to US6093717A, “Imidazopyridine thrombin inhibitors” (Merck & Co., Inc., priority 1999, dated 2000):
Structures can show the parent of a compound that is named as a salt.

Target: human α-thrombin (Homo sapiens, UniProt P00734)
Test: In vitro assay for determining proteinase inhibition: human α-thrombin
Type: biochemical
Details: 25° C., 0.05 M TRIS buffer pH 7.4, 0.15 M NaCl, 0.1% PEG, class symbols, read-out: Inhibitory activity (Ki)
Protocol: In Vitro Assay For Determining Proteinase Inhibition
The assays were carried out at 25° C. in 0.05 M TRIS buffer pH 7.4, 0.15 M NaCl, 0.1% PEG. Trypsin assays also contained 1 mM CaCl2.
Concentrations of stock solutions of Z-GPR-afc were determined from measurements of absorbance at 380 nm of the 7-amino-4-trifluoromethyl coumarin produced upon complete hydrolysis of an aliquot of the stock solution by thrombin.
Times required to achieve equilibration between enzyme and inhibitor were determined in control experiments. Initial velocities of product formation in the absence (Vo) or presence of inhibitor (Vi) were measured. Assuming competitive inhibition, and that unity is negligible compared Km /[S], […] (where [S], [I], and e respectively represent the total concentrations, of substrate, inhibitor and enzyme), the equilibrium constant (Ki) for dissociation of the inhibitor from the enzyme can be obtained from the dependence of Vo /Vi on [I] shown in equation 1.

| SMILES | Ki [nM] |
| --- | --- |
| Cc1cnc(NCCc2ccccc2)c(=O)n1CC(=O)NCc1ccc2nccn2c1 [Example 1, dihydrochloride] | > 20 |
| Cc1cc(CNC(=O)Cn2c(C)cnc(NCCc3ccccc3)c2=O)cn2ccnc12 [Example 3, dihydrochloride] | > 20 |
| Cc1cc2nccn2cc1CNC(=O)Cn1c(C)cnc(NCCc2ccccc2)c1=O [Example 4, dihydrochloride] | > 20 |
| Cc1cnc(NCCc2ccccc2)c(=O)n1CC(=O)NCc1ccn2ccnc2c1 [Example 5, 3-(2-Phenethyleneamino)-6-methyl-1-(6-methylenecarboxamidomethylene-imidazo[1,2-a]pyridinyl)-pyrazinone] | > 20 |
| Cc1cc(S(=O)(=O)CC2CCC2)c(N)c(=O)n1CC(=O)NCc1ccc2nccn2c1C [Example 6, 3-Amino-4-cyclobutylmethylenesulfonyl-6-methyl-1-(4-methyl-5-methylenecarboxamidomethyleneimidazo[1,2-a]pyridinyl)-pyridinone hydrochloride] | < 20 |
| Cc1cnc(NCCc2ccccn2)c(=O)n1CC(=O)NCc1ccc2nccn2c1C [Example 7, 3-[2-(2-Pyridyl)ethyleneamino]-6-methyl-1-(4-methyl-5-methylenecarboxamidomethyleneimidazo[1,2-a]pyridinyl)-pyrazinone] | < 20 |
| Cc1ccc(NS(=O)(=O)Cc2ccccc2)c(=O)n1CC(=O)NCc1ccc2nccn2c1C [Example 8, hydrochloride] | < 20 |
| Cc1cc2c(c(=O)n1CC(=O)NCc1ccc3nccn3c1C)NC(=O)[C@H](Cc1ccccc1)C2 [Example 9, [R]-7-(4-methyl-5-methylenecarboxamidomethyleneimidazo[1,2-a]pyridinyl)-3-benzyl-6-methyl-2-oxo-1,2,3,4-tetrahydro-1,7-naphthiridin-[7H]-8-one] | < 20 |
| CC[C@H](C)CC1Cc2cc(C)n(CC(=O)NCc3ccc4nccn4c3C)c(=O)c2NC1=O (stereo partly drawn) [Example 10, 7-(4-methyl-5-methylenecarboxamidomethyleneimidazo[1,2-a]pyridinyl)-3-[RS]-(2-[S]-methylbutyl)-6-methyl-2-oxo-1,2,3,4-tetrahydro-1,7-naphthiridin-[7H]-8-one] | < 20 |
